System: IL2 promoter
Experiment: Human IL2 promoter reporter gene assay (RGA) in Jurkat cells
Assay type: cell-based
Experimental: Human IL2 Promoter Reporter Gene Assay (RGA) in Jurkat Cells
The transfected Jurkat clone K22 290_H23 was propagated in RPMI 1640 supplemented with 10% heat inactivated fetal calf serum, 50 μM 2-mercaptoethanol and 1 mg/ml Geneticin. The cell concentration should not exceed 1×10e6/ml during culturing. The cells should not exceed passage 30. Prior to the assay the cells were washed and prepared to the concentration of 2×10e6 cells/ml.
Compound dilutions were made as 2×-concentrated solutions then diluted ½ by addition to cells. Two hundred and fifty μl of compound dilution and 250 μl of cells were mixed together in wells of a 96-deep well plate. Cells/compounds premix were incubated 30 min at 37° C. and 5% CO2 directly in the deep well plate.
After pre-incubation of cells with compounds, cells were stimulated with anti-CD28 mAb (clone 15E8) at 3 μg/ml+PMA at 1 μg/ml. Both co-stimulants were diluted in culture medium at a 10×-concentrated solution. 10 μl of co-stimulants were pipetted into the white 96-well plates and 100 μl of cell/compound mix was immediately added in duplicates. The cells were stimulated for 5.5 h at 37° C. and 5% CO2.
After cell stimulation, 50 μl of BriteLitePlus reagent (Perkin Elmer) was added to each well and the bioluminescence was measured with a Wallac EnVision reader (Perkin Elmer).

[1] = […], heading: IL2 reporter gene assay IC50, anti-CD28 mAb + PMA stimulation 5.5 h

IC50 [1] | SMILES | IC50 (anti-CD28 mAb + PMA stimulation 5.5 h)
68 nM | CO[C@H](C)CO[C@@H](C)c1c(NC(=O)Nc2cnc(-n3nccn3)c(Cl)c2)cnc2cc(Cl)nn12 [Example 85, 1-(5-chloro-6-(2H-1,2,3-triazol-2-yl)pyridin-3-yl)-3-(2-chloro-7-((S)-1-((R)-2 methoxypropoxy)ethyl)pyrazolo[1,5-a]pyrimidin-6-yl)urea] | –
14 nM | COC(c1c(NC(=O)Nc2ccnc(C(F)(F)F)c2)cnc2cc(Cl)nn12)C1CCOCC1 (stereo not drawn) [Example 90, 1-(2-chloro-7-(methoxy(tetrahydro-2H-pyran-4-yl)methyl)pyrazolo[1,5-a]pyrimidin-6-yl)-3-(2-(trifluoromethyl)pyridin-4-yl)urea] | –
248 nM | CCOc1ncc(NC(=O)Nc2cnc3cc(Cl)nn3c2C(C)C)cc1Cl [Example 25, 1-(5-chloro-6-ethoxypyridin-3-yl)-3-(2-chloro-7-isopropylpyrazolo[1,5-a]pyrimidin-6-yl)urea] | –
266 nM | O=C(Nc1cnc(-n2nccn2)c(C(F)(F)F)c1)Nc1cnc2cc(Cl)nn2c1C1CCCO1 (stereo not drawn) [Example 54, 1-(6-(2H-1,2,3-triazol-2-yl)-5-(trifluoromethyl)pyridin-3-yl)-3-(2-chloro-7-(tetrahydrofuran-2-yl)pyrazolo[1,5-a]pyrimidin-6-yl)urea] | –
25 nM | CO[C@@H](C)c1c(NC(=O)Nc2cnc(-n3nccn3)c(C(F)F)c2)cnc2cc(Cl)nn12 [Example 89, (S)-1-(2-chloro-7-(1-methoxyethyl)pyrazolo [1,5-a]pyrimidin-6-yl)-3-(5-(difluoromethyl)-6-(2H-1,2,3-triazol-2-yl)pyridin-3-yl)urea] | –
134 nM | Cc1cc2ncc(NC(=O)Nc3cnc(-n4nccn4)c(Cl)c3)c(C3(C)CCCO3)n2n1 (stereo not drawn) [Example 104, 1-(5-chloro-6-(2H-1,2,3-triazol-2-yl)pyridin-3-yl)-3-(2-methyl-7-(2-methyltetrahydrofuran-2-yl)pyrazolo[1,5-a]pyrimidin-6-yl)urea] | –
484 nM | CO[C@@H](C)c1c(NC(=O)Nc2cnc(-n3nccn3)c(C(F)(F)F)c2)cnc2cc(F)nn12 [Example 94, (S)-1-(6-(2H-1,2,3-triazol-2-yl)-5-(trifluoromethyl)pyridin-3-yl)-3-(2-fluoro-7-(1-methoxyethyl)pyrazolo[1,5-a]pyrimidin-6-yl)urea] | –
149 nM | CC1(c2c(NC(=O)Nc3ccnc(C(F)(F)F)c3)cnc3cc(Cl)nn23)CC1 [Example 17, 1-(2-chloro-7-(1-methylcyclopropyl)pyrazolo[1,5-a]pyrimidin-6-yl)-3-(2-(trifluoromethyl)pyridin-4-yl)urea] | –
112 nM | CO[C@@H](C)c1c(NC(=O)Nc2ccnc(C#N)c2)cnc2cc(Cl)nn12 [Example 105, (S)-1-(2-chloro-7-(1-methoxyelhyl)pyrazolo[1,5-a]pyrimidin-6-yl)-3-(2-cyanopyridin-4-yl)urea] | –
17 nM | COCC(OC)c1c(NC(=O)Nc2cnc(-n3nccn3)c(C(F)(F)F)c2)cnc2cc(Cl)nn12 (stereo not drawn) [Example 108, 1-(6-(2H-1,2,3-triazol-2-yl)-5-(trifluoromethyl)pyridin-3-yl)-3-(2-chloro-7-(1,2-dimethoxyethyl)pyrazolo[1,5-a]pyrimidin-6-yl)urea] | –
206 nM | COc1ncc(NC(=O)Nc2cnc3cc(Cl)nn3c2-c2ccncc2)cc1Cl [Example 69, 1-(5-chloro-6-methoxypyridin-3-yl)-3-(2-chloro-7-(pyridin-4-yl)pyrazolo[1,5-a]pyrimidin-6-yl)urea] | –
46 nM | COCC1(c2c(NC(=O)Nc3ccnc(C(F)(F)F)c3)cnc3cc(Cl)nn23)CC1 [Example 77, 1-(2-chloro-7-(1-(methoxymethyl)cyclopropyl)pyrazolo[1,5-a]pyrimidin-6-yl)-3-(2-(trifluoromethyl)pyridin-4-yl)urea] | –
54 nM | CO[C@@H](C)c1c(NC(=O)Nc2cc(Cl)cnc2OCCN(C)C)cnc2cc(Cl)nn12 [Example 99, (S)-1-(5-chloro-2-(2-(dimethylamino)ethoxy)pyridin-3-yl)-3-(2-chloro-7-(1-methoxyethyl)pyrazolo[1,5-a]pyrimidin-6-yl)urea] | –
32 nM | COCCC(OC)c1c(NC(=O)Nc2cnc(-n3nccn3)c(Cl)c2)cnc2cc(Cl)nn12 (stereo not drawn) [Example 64, 1-(5-chloro-6-(2H-1,2,3-triazol-2-yl)pyridin-3-yl)-3-(2-chloro-7-(1,3-dimethoxypropyl)pyrazolo[1,5-a]pyrimidin-6-yl)urea] | –
89 nM | COCC1(c2c(NC(=O)Nc3ccnc(C(F)(F)F)c3)cnc3cc(C)nn23)CC1 [Example 79, 1-(7-(1-(methoxymethyl)cyclopropyl)-2-methylpyrazolo[1,5-a]pyrimidin-6-yl)-3-(2-(trifluoromethyl)pyridin-4-yl)urea] | –
49 nM | CN1CCCC[C@H]1c1c(NC(=O)Nc2cnc(-n3nccn3)c(Cl)c2)cnc2cc(Cl)nn12 [Example 84, (S)-1-(5-chloro-6-(2H-1,2,3-triazol-2-yl)pyridin-3-yl)-3-(2-chloro-7-(1-methylpiperidin-2-yl)pyrazolo[1,5-a]pyrimidin-6-yl)urea] | –
14 nM | CC(C)OCc1c(NC(=O)Nc2cnc(-n3nccn3)c(Cl)c2)cnc2cc(Cl)nn12 [Example 61, 1-(5-chloro-6-(2H-1,2,3-triazol-2-yl)pyridin-3-yl)-3-(2-chloro-7-(isopropoxymethyl)pyrazolo[1,5-a]pyrimidin-6-yl)urea] | –
24 nM | CO[C@@H](C)c1c(NC(=O)Nc2ccnc(C(F)F)c2)cnc2cc(Cl)nn12 [Example 92, (S)-1-(2-chloro-7-(1-methoxyethyl)pyrazolo [1,5-a]pyrimidin-6-yl)-3-(2-(difluoromethyl)pyridin-4-yl)urea] | –
507 nM | CC(C)c1c(NC(=O)Nc2cnc(N3CCCS3(=O)=O)c(C(F)(F)F)c2)cnc2cc(Cl)nn12 [Example 27, 1-(2-chloro-7-isopropylpyrazolo[1,5-a]pyrimidin-6-yl)-3-(6-(1,1-dioxidoisothiazolidin-2-yl)-5-(trifluoromethyl)pyridin-3-yl)urea] | –
199 nM | COCC(OC)c1c(NC(=O)Nc2ccnc(C(F)(F)F)c2)cnc2cc(Cl)nn12 (stereo not drawn) [Example 109, 1-(2-chloro-7-(1,2-dimethoxyethyl)pyrazolo[1,5-a]pyrimidin-6-yl)-3-(2-(trifluoromethyl)pyridin-4-yl)urea] | –
63 nM | CN(C)C(=O)c1c(NC(=O)Nc2cnc(-n3nccn3)c(Cl)c2)cnc2cc(Cl)nn12 [Example 70, 2-chloro-6-(3-(5-chloro-6-(2H-1,2,3-triazol-2-yl)pyridin-3-yl)ureido)-N,N-dimethylpyrazolo[1,5-a]pyrimidine-7-carboxamide] | –
214 nM | Cc1cnn(-c2ncc(NC(=O)Nc3cnc4cc(Cl)nn4c3C(C)C)cc2Cl)n1 [Example 22, 1-(5-chloro-6-(4-methyl-2H-1,2,3-triazol-2-yl)pyridin-3-yl)-3-(2-chloro-7-isopropylpyrazolo[1,5-a]pyrimidin-6-yl)urea] | –
218 nM | COCCO[C@@H](C)c1c(NC(=O)Nc2cnc(OC(F)F)c(Cl)c2)cnc2cc(Cl)nn12 [Example 97, (S)-1-(5-chloro-6-(difluoromethoxy)pyridin-3-yl)-3-(2-chloro-7-(1-(2-methoxyethoxy)ethyl)pyrazolo[1,5-a]pyrimidin-6-yl)urea] | –
104 nM | Cc1ncn(-c2ccc(NC(=O)Nc3cnc4cc(Cl)nn4c3C(C)C)cc2C#N)n1 [Example 19, 1-(2-chloro-7-isopropylpyrazolo[1,5-a]pyrimidin-6-yl)-3-(3-cyano-4-(3-methyl-1H-1,2,4-triazol-1-yl)phenyl)urea] | –
– | CO[C@@H](C)c1c(NC(=O)Nc2ccnc(C(F)(F)F)c2)cnc2cc(Cl)nn12 [Example 2, (S)-1-(2-chloro-7-(1-methoxyethyl)pyrazolo[1,5-a]pyrimidin-6-yl)-3-(2-(trifluoromethyl)pyridin-4-yl)urea] | 51 nM
59 nM | CC(C)c1c(NC(=O)Nc2cc(C(F)(F)F)cn(C)c2=O)cnc2cc(Cl)nn12 [Example 32, 1-(2-chloro-7-isopropylpyrazolo[1,5-a]pyrimidin-6-yl)-3-(1-methyl-2-oxo-5-(trifluoromethyl)-1,2-dihydropyridin-3-yl)urea] | –
52 nM | CO[C@@H](C)c1c(NC(=O)Nc2cnc(-n3nccn3)c(Cl)c2)cnc2cc(C#N)nn12 [Example 96, (S)-1-(5-chloro-6-(2H-1,2,3-triazol-2-yl)pyridin-3-yl)-3-(2-cyano-7-(1-methoxyethyl)pyrazolo[1,5-a]pyrimidin-6-yl)urea] | –
221 nM | CC(C)c1c(NC(=O)Nc2cnc(-c3ccnn3C)c(Cl)c2)cnc2cc(Cl)nn12 [Example 29, 1-(5-chloro-6-(1-methyl-1H-pyrazol-5-yl)pyridin-3-yl)-3-(2-chloro-7-isopropylpyrazolo[1,5-a]pyrimidin-6-yl)urea] | –
267 nM | COCC1(c2c(NC(=O)Nc3ccnc(C(F)(F)F)c3)cnc3cc(Cl)nn23)CCC1 [Example 51, 1-(2-chloro-7-(1-(methoxymethyl)cyclobutyl)pyrazolo[1,5-a]pyrimidin-6-yl)-3-(2-(trifluoromethyl)pyridin-4-yl)urea] | –

SMILES | IC50 [1] | IC50 (anti-CD28 mAb + PMA stimulation 5.5 h)
COC[C@H](C)c1c(NC(=O)Nc2cnc(-n3nccn3)c(Cl)c2)cnc2cc(Cl)nn12 [Example 45, (R)-1-(5-chloro-6-(2H-1,2,3-triazol-2-yl)pyridin-3-yl)-3-(2-chloro-7-(1-methoxypropan-2-yl)pyrazolo[1,5-a]pyrimidin-6-yl)urea] | 63 nM | –
